Laboratory results: PMC11093748, “De novo identification of CD4^+ T cell epitopes” (Nature Methods, 2024)

Tests used:
5-4-E8 TCR = experiment: Single SABR-II co-incubation, NFAT-GFP Jurkat; assay type: cell-based, mouse; settings: I-Ad SABR-II; 18-20 h
Description: (§1) We have previously described SABRs, which are chimeric receptors containing an extracellular pMHC complex attached to an intracellular CD28-CD3ζ signaling domain. […] We sought to expand this platform to allow antigen discovery for MHC/HLA-II with seamless integration with class I alleles. Here, we created SABRs to present epitopes in MHC-II alleles, by covalently linking the epitope to the β-chain of MHC-II that is attached to the CD28-CD3ζ signaling domains downstream, along with a 2A peptide-linked MHC-II α-chain (Fig. 1a,b). To test whether SABR-IIs could present epitopes to TCRs and induce a signal, we expressed them using lentiviral vectors in NFAT–GFP Jurkat cells, which express green fluorescent protein (GFP) upon NFAT activation and translocation downstream of CD3ζ activation (a kind gift from Y. Chen and A. Weiss). We constructed murine SABR-IIs presenting epitopes in I-Ab, I-Ad and I-Ag7 (Ova, […][41]; ATEG, […][42]; and 2.5mimo, […][43], respectively). We co-incubated the SABR-II-expressing NFAT–GFP Jurkat cells with a separate population of Jurkat cells expressing either the BDC2.5 TCR (recognizes I-Ag7-2.5mimo), OT-II TCR (recognizes I-Ab-Ova), 5-4-E8 TCR (recognizes I-Ad-ATEG) or no TCR. […]

TCR2 [1] = experiment: I-Ag7 SABR-II HIP library screen, enrichment score; assay type: cell-based, mouse; settings: TCR_Mean of 3 replicates minus PREDICTED_TCR (slope 0.896988, intercept 4.04602e-5)
Description: (§2) Given the predominance of HIP-reactive TCRs, we hypothesized that there may be other TCRs that respond to HIPs that were not encoded in our initial library configuration. While the initial I-Ag7 SABR-II library consisted of a number of HIPs, HIP formation is thought to be more widespread in pancreatic β-cells[52],[70]. Therefore, we sought to construct a defined, HIP-focused library to probe whether there were any undiscovered HIP-reactive TCRs that could be recognized by the clonally expanded TCR in our dataset. To test this, we utilized a published proteomic dataset, which predicted that several proteins that were highly expressed in secretory granules of β-cells may contribute to HIP formation. Using their predictions, we built a theoretical HIP library, in which all possible ‘left’ halves of the insulin C chain derived from natural cleavage products were fused to ‘right’ halves derived from secretory granule proteins (Fig. 5a). This 2,561-epitope library (12–25 amino acids per epitope) consisted of only HIPs and a small number of positive control epitopes (Supplementary Table 5). We screened the top three clonally expanded TCRs (TCR1, TCR2 and TCR3) against this library, as these TCRs had not been de-convoluted using the original library. […] To confirm that the HIP itself was important for the cognate interaction, we cloned single 14-mer epitopes into SABR-IIs consisting of seven amino acids of the left portion of the HIP and seven amino acids of the right portion of the HIP. In this way, no nine amino acids from either peptide sequence alone could occupy the binding pocket of I-Ag7, ensuring that TCR reactivity spanned the HIP junction. […] Of note, in all the epitopes that were tested, the ‘left’ half derived from insulin C was conserved, whereas the ‘right’ halves were derived from several other proteins (Fig. 5d). […] Moreover, the promiscuous binding of TCR3 to HIPs corroborates evidence from other NOD mouse-derived TCRs reacting to multiple HIPs[72].
(§3) To generate the I-Ag7 restricted SABR library, we combined all Immune Epitope Database epitopes with a published immunopeptidome generated by Wan et al.[51]. Sequences were filtered remove all post-translational modifications except deamidation and HIPs and trimmed between 9–25 amino acid lengths. For the insulin C HIP and HLA-DQ8 library, non-contiguous epitopes from Wiles et al.[66] as well as all Immune Epitope Database epitopes were combined to generate the epitope list. Epitope sequences were back-translated using the backtranslate_fast.py script.
(§4) For SABR library screens, 3 × 10^6 NFAT–GFP Jurkat cells expressing the SABR library were labeled with CellTrace Violet (BioLegend) according to the manufacturer’s protocol before incubation with 3 × 10^6 Jurkat cells expressing the TCR of interest. These mixtures were incubated in a six-well plate for 16–20 h. Cells were stained with anti-CD69-APC-Cy7 where indicated (BioLegend) and the top 1–2% of GFP^+CD69^+ cells were sorted for genomic DNA extraction, indexing and sequencing (see below). Multiplexed assays were scaled on a per-TCR basis (for example 3 × 10^6 for each of three TCRs against 9 × 10^6 library cells). For single SABR assays, unless otherwise defined, 5 × 10^5 SABR expressing NFAT–GFP Jurkat cells (or 5KC cells) were labeled with CellTrace Violet (BioLegend) according to the manufacturer’s protocol before incubation with 5 × 10^5 TCR-expressing Jurkat cells (or 5KC cells) in a round-bottom 96-well plate for 16–20 h. Cells were stained with anti-CD69-APC-Cy7 when indicated and acquired on the Attune NxT flow cytometer (Thermo Fisher Scientific). All flow analysis was performed using FlowJo (BD). For Daudi cell co-culture, 1 × 10^6 Jurkat cells expressing the TCR of interest were incubated with 1 × 10^6 Daudi cells expressing a SABR of interest for 3 days. On day 3, cells were labeled with anti-RT1B-PE and anti-Fas-APC-Cy7 before being acquired on the Attune NxT flow cytometer. […]

TCR1 = experiment: I-Ag7 SABR-II HIP library screen, enrichment score; assay type: cell-based, mouse; settings: TCR_Mean of 3 replicates minus PREDICTED_TCR (slope 0.931777, intercept 2.67961e-5)
Description: as §2, §3, §4

OT-II TCR = experiment: Single SABR-II co-incubation, NFAT-GFP Jurkat; assay type: cell-based, mouse; settings: I-Ab SABR-II; 18-20 h
Description: as §1

TCR4 = experiment: Single SABR-II co-incubation, NFAT-GFP Jurkat; assay type: cell-based, mouse; settings: TCR 4
Method in brief: (§5)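 Single SABR-II constructs for putative cognate epitopes were expressed in CellTrace Violet-labelled NFAT–GFP Jurkat cells and co-incubated 1:1 (5 × 10^5 each) with TCR-expressing Jurkat cells for 16–20 h. GFP (with CD69 staining when indicated) was measured by flow cytometry. Wells with GFP above the no-TCR control were scored positive.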

TCR15 = experiment: Single SABR-II co-incubation, NFAT-GFP Jurkat; assay type: cell-based, mouse; settings: TCR 15, Fig 3B, 18 h
Method in brief: as §5

Jurkat cells, No TCR = experiment: Single SABR-II co-incubation, background without TCR; assay type: cell-based, human; settings: No TCR
Method in brief: as §5

TCR2 [2] = experiment: Single SABR-II co-incubation, NFAT-GFP Jurkat; assay type: cell-based, mouse; settings: TCR 2, Ext. Data Fig. 6C, 18-20 hr
Method in brief: as §5

GSE.20D11 TCR = experiment: Single SABR-II co-incubation, NFAT-GFP Jurkat (HLA-DQ8); assay type: cell-based, human; settings: GSE 20.D11 TCR
Description: (§6) We have previously described SABRs, which are chimeric receptors containing an extracellular pMHC complex attached to an intracellular CD28-CD3ζ signaling domain. […] We sought to expand this platform to allow antigen discovery for MHC/HLA-II with seamless integration with class I alleles. Here, we created SABRs to present epitopes in MHC-II alleles, by covalently linking the epitope to the β-chain of MHC-II that is attached to the CD28-CD3ζ signaling domains downstream, along with a 2A peptide-linked MHC-II α-chain (Fig. 1a,b). To test whether SABR-IIs could present epitopes to TCRs and induce a signal, we expressed them using lentiviral vectors in NFAT–GFP Jurkat cells, which express green fluorescent protein (GFP) upon NFAT activation and translocation downstream of CD3ζ activation (a kind gift from Y. Chen and A. Weiss). We constructed murine SABR-IIs presenting epitopes in I-Ab, I-Ad and I-Ag7 (Ova, […][41]; ATEG, […][42]; and 2.5mimo, […][43], respectively). We co-incubated the SABR-II-expressing NFAT–GFP Jurkat cells with a separate population of Jurkat cells expressing either the BDC2.5 TCR (recognizes I-Ag7-2.5mimo), OT-II TCR (recognizes I-Ab-Ova), 5-4-E8 TCR (recognizes I-Ad-ATEG) or no TCR. […] The signal from the NFAT–GFP reporter offered minimal background in absence of a cognate TCR and correlated with surface SABR expression in the presence of a cognate TCR (Extended Data Fig. 1c–e). […] We confirmed the ability of the DQ8-InsB9:23 SABR-II to present the epitope to two previously described, T1D patient-derived TCRs GSE.6H9 and GSE.20D11 (ref. [46]).
(§7) For SABR library screens, 3 × 10^6 NFAT–GFP Jurkat cells expressing the SABR library were labeled with CellTrace Violet (BioLegend) according to the manufacturer’s protocol before incubation with 3 × 10^6 Jurkat cells expressing the TCR of interest. These mixtures were incubated in a six-well plate for 16–20 h. Cells were stained with anti-CD69-APC-Cy7 where indicated (BioLegend) and the top 1–2% of GFP^+CD69^+ cells were sorted for genomic DNA extraction, indexing and sequencing (see below). Multiplexed assays were scaled on a per-TCR basis (for example 3 × 10^6 for each of three TCRs against 9 × 10^6 library cells). For single SABR assays, unless otherwise defined, 5 × 10^5 SABR expressing NFAT–GFP Jurkat cells (or 5KC cells) were labeled with CellTrace Violet (BioLegend) according to the manufacturer’s protocol before incubation with 5 × 10^5 TCR-expressing Jurkat cells (or 5KC cells) in a round-bottom 96-well plate for 16–20 h. Cells were stained with anti-CD69-APC-Cy7 when indicated and acquired on the Attune NxT flow cytometer (Thermo Fisher Scientific). All flow analysis was performed using FlowJo (BD). For Daudi cell co-culture, 1 × 10^6 Jurkat cells expressing the TCR of interest were incubated with 1 × 10^6 Daudi cells expressing a SABR of interest for 3 days. On day 3, cells were labeled with anti-RT1B-PE and anti-Fas-APC-Cy7 before being acquired on the Attune NxT flow cytometer.

GSE.6H9 TCR = experiment: as above; assay type: cell-based, human; settings: GSE 6.H9 TCR
Description: as §6, §7

[3] = Ext. Data Fig. 6C, 18-20 hr, technical replicate 1
[4] = Ext. Data Fig. 6C, 18-20 hr, technical replicate 2
[5] = Fig 3B, 18 h, biological replicate 1
[6] = Fig 3B, 18 h, biological replicate 2
[7] = Fig 3B, 18 h, biological replicate 3

Sequence: ATEGRVRVNSAYQDK
- GFP and CD69 expression in SABR-II-expressing NFAT-GFP Jurkat cells (in words) (5-4-E8 TCR): Robust GFP and CD69 expression

Sequence: EVEDPQVAQLNAARDPNRESLD
- Enrichment score (TCR2 [1]): 0.0005844

Sequence: EVEDPQVEQLEGEDDPDRSMK
- Enrichment score (TCR2 [1]): 0.000574

Sequence: EVEDPQVEQLELSGKEVKGEEKGE
- Enrichment score (TCR1): 0.0005139

Sequence: EVEDPQVEWSRMDQLAKELT
- Enrichment score (TCR1): 0.0005047

Sequence: EVQEKPQELTDQDQSQEESQEG
- Enrichment score (TCR1): 0.0005738

Sequence: GAGDLQTLALEVEEEGSANRRAED
- Enrichment score (TCR2 [1]): 0.0005985

Sequence: GDLQTLALEVAQSGKEVKGEEKGE
- Enrichment score (TCR1): 0.0005301

Sequence: ISQAVHAAHAEINEAGR [Ova]
- GFP and CD69 expression in SABR-II-expressing NFAT-GFP Jurkat cells (in words) (OT-II TCR): Robust GFP and CD69 expression

Sequence: LQTLALNAARD
- %GFP+CD69+ cells of SABR-NFAT-GFP-Jurkat cells (TCR4; [3]): 22.3%
- %GFP+CD69+ cells of SABR-NFAT-GFP-Jurkat cells (TCR4; [4]): 22%
- %GFP+CD69+ cells of SABR-NFAT-GFP-Jurkat cells (TCR4; [5]): 42.4%
- %GFP+CD69+ cells of SABR-NFAT-GFP-Jurkat cells (TCR4; [6]): 41.7%
- %GFP+CD69+ cells of SABR-NFAT-GFP-Jurkat cells (TCR4; [7]): 45.77%
- %GFP+CD69+ cells of SABR-NFAT-GFP-Jurkat cells (TCR15; biological replicate 1): 43.67%
- %GFP+CD69+ cells of SABR-NFAT-GFP-Jurkat cells (TCR15; biological replicate 2): 48.77%
- %GFP+CD69+ cells of SABR-NFAT-GFP-Jurkat cells (TCR15; biological replicate 3): 51.63%
- %GFP+CD69+ cells of SABR-NFAT-GFP-Jurkat cells (Jurkat cells, No TCR; [3]): 4.02%
- %GFP+CD69+ cells of SABR-NFAT-GFP-Jurkat cells (Jurkat cells, No TCR; [4]): 3.97%
- %GFP+CD69+ cells of SABR-NFAT-GFP-Jurkat cells (Jurkat cells, No TCR; [5]): 2.49%
- %GFP+CD69+ cells of SABR-NFAT-GFP-Jurkat cells (Jurkat cells, No TCR; [6]): 7.87%
- %GFP+CD69+ cells of SABR-NFAT-GFP-Jurkat cells (Jurkat cells, No TCR; [7]): 3.83%

Sequence: PGDLQTLALEVALLDEGHYPVRES
- Enrichment score (TCR2 [1]): 0.0008737

Sequence: RQNGVLNSWTDQD
- %GFP+CD69+ cells of SABR-NFAT-GFP-Jurkat cells (TCR2 [2]; technical replicate 1): 1.56%
- %GFP+CD69+ cells of SABR-NFAT-GFP-Jurkat cells (TCR2 [2]; technical replicate 2): 1.62%
- %GFP+CD69+ cells of SABR-NFAT-GFP-Jurkat cells (Jurkat cells, No TCR; [3]): 1.51%
- %GFP+CD69+ cells of SABR-NFAT-GFP-Jurkat cells (Jurkat cells, No TCR; [4]): 1.42%

Sequence: SHLVEALYLVCERG
- Frequency of %GFP+CD69+ cells of SABR-NFAT-GFP-Jurkat cells (GSE.20D11 TCR; biological replicate 1 of 3): 24.8%
- Frequency of %GFP+CD69+ cells of SABR-NFAT-GFP-Jurkat cells (GSE.20D11 TCR; biological replicate 2 of 3): 42.4%
- Frequency of %GFP+CD69+ cells of SABR-NFAT-GFP-Jurkat cells (GSE.20D11 TCR; biological replicate 3 of 3): 41.1%
- Frequency of %GFP+CD69+ cells of SABR-NFAT-GFP-Jurkat cells (GSE.6H9 TCR; biological replicate 1 of 3): 16.8%
- Frequency of %GFP+CD69+ cells of SABR-NFAT-GFP-Jurkat cells (GSE.6H9 TCR; biological replicate 2 of 3): 29.6%
- Frequency of %GFP+CD69+ cells of SABR-NFAT-GFP-Jurkat cells (GSE.6H9 TCR; biological replicate 3 of 3): 27.9%

Sequence: SPGDLQTLALEVPSPKESKEADVA
- Enrichment score (TCR1): 0.0005282

Sequence: VAQLELGGGPGASEASAKKKDESV
- Enrichment score (TCR2 [1]): 0.0007771
